From US20110159113A1, “HYPERBRANCHED POLYESTER AND A METHOD OF SYNTHESIZING A HYPERBRANCHED POLYESTER” (priority 2011, published 2011)

Test system: tumor cells C26
Assay: MTT assay, in vitro cytotoxicity, 72 h incubation
Type: cell-based
Protocol: In vitro cytotoxicity of CDDP, P(CA8-G)-CDDP and P(CA12-G)-CDDP was evaluated by using a MTT assay. To measure cytotoxicity, tumor cells C26 were separately incubated in a plate with different concentrations of CDDP, P(CA8-G)-CDDP and P(CA12-G)-CDDP. The duration of incubation was 72 h. […] With respect to FIG. 13, it is concluded that, loading of cisplatin into the P(CA8-G)-CDDP and P(CA12-G)-CDDP influences its cytotoxicity. […] According to the MTT assay measurements, IC50 doses of free cisplatin, P(CA8-G)-CDDP and P(CA12-G)-CDDP were calculated. IC50 dose is the concentrations of active ingredients necessary to inhibit the cell growth by 50%.
P(CA12-G)-CDDP was synthesized in the same manner as explained above. P(CA8-G)-CDDP and P(CA12-G)-CDDP were used for MTT assay measurements.

**Q.** Which IC50 does the source give for `N.N.[Cl][Pt][Cl]` [CDDP, cis-dichlorodiammineplatinum (II)] here?
**A.** 37.9 µg/mL
